These results are taken from patent USRE46907E1, “Suppression of cancer growth and metastasis using nordihydroguaiaretic acid derivatives with metabolic modulators” (THE JOHNS HOPKINS UNIVERSITY, priority 2008, dated 2018).

The test system of series [1] is PKCδ. Nature of the series: Western blotting of total PKCδ and phosphor-PKCδ (Thr505) in 4T1 cells. The format is cell-based, mouse. The conditions noted are these: 4T1, 5 hrs; M4N 80 μM, Ro 5 μM, Ly 20 μM, Des 150 μM. As for the experimental part:
The sample volumes were adjusted by the total protein amount. Protein assay was performed by Bio-Rad Protein Assay (Bio-Rad Laboratories, Inc. Hercules, Calif.). The samples were resolved by the standard SDS-polyacrylamide gel electrophoresis and transferred to nitrocellulose membrane (Amersham Biosciences, Bjorkgatan, Sweden). The membranes were blocked with skim milk, and incubated with primary antibodies at 4° C. overnight and then with secondary antibody conjugated with horse radish peroxidase at room temperature for 2 hrs. The signals were detected by western blot chemiluminescence reagent plus (New England Nuclear Life Science Products, Boston, Mass.).
Background: In western blotting, separated proteins are transferred to a membrane and probed.

The conditions of series [2]: daily (1 mg/day) IV injection, nude mice carrying human tumor xenografts; cited from earlier work. On the technique in general: Xenograft models place foreign cells or tissue in a host animal.
Series [3] has as its system LNCaP human prostate cancer cells. Nature of the series: MTT cell growth assay in LNCaP cells. The format is cell-based. The conditions noted are these: 24 hrs, M4N 80 μM, Ro 5 μM, Ly 20 μM. The procedure: (§1) Cell Culture Either cell line 4T1 or 67NR was a gift from Dr. Miller (20). The cells were cultured in RPMI1640 medium supplemented with glucose (14 mM), pyruvate (1 mM), penicillin (100 units/ml), streptomycin (100 μg/ml), and fetal bovine serum (10%), buffered with 25 mM HEPES (pH 7.4). LNCaP human prostate cancer cell line was purchased from American Type Culture Collection (Manassas, Va.). The cell line was cultured in RPMI1640 medium supplemented with glucose (14 mM), pyruvate (1 mM), penicillin (100 units/ml), streptomycin (100 μg/ml), and fetal bovine serum (10%). Drugs were dissolved in dimethyl sulfoxide (DMSO) at a suitable concentration so that the final concentration of DMSO in the medium was less than 0.1%.
MTT assay: Cells were incubated in PBS (−) supplemented with 5% fetal calf serum and 0.5 mg/ml MTT, 3-(4,5-Dimethylthiazol-2-yl)-2,5-diphenyltetrazolium bromide (Sigma, Saint Louis, Mo.) for 2 hrs. After the incubation, the cells were dissolved in dimethyl sulfoxide and the color of the solutions was measured by a spectrophotometer at wavelengths of 540 and 690 nm. The values correlated with viable cell numbers were obtained by subtracting the optical density at 690 nm from that, at 540 nm.

Series [4] concerns 4T1 cells. Nature of the series: TUNEL apoptosis assay in 4T1 cells. Format: cell-based, mouse. Conditions: 4T1, 48 hr after treatment, M4N 80 μM. The procedure: as §1
(§2) Apoptosis assay: Simple TLTNEL assay was conducted by using TUNEL apoptosis detection kit (Upstate, Temecula, Calif.) with some modification. For the evaluation of the effect of PKCδ wild type and dominant negative vectors on TUNEL-positive cell death, we first transfected 4T1 or 67NR cells with these vectors by effectene (Qiagen, Valencia, Calif.). Wild type PKCδ vector is constructed from wild type PKCδ gene and pEGFP (Promega, Madison, Wis.). Dominant negative PKCδ vector is constructed from PKCδ gene mutated at a 376th amino acid residue (threonine) and pEGFP (Promega, Madison, Wis.) This threonine residue is located in ATP-binding domain of protein kinase Cδ, and therefore essential for any kinase reaction of the protein so that this mutant protein supposedly function as dominant negative. As a control we used pEGFP-N3 vector was used. These vectors contain green fluorescent protein (GFP) gene to be used as a transfection marker. The vectors are kind gifts from Dr. Yuspa (National Institutes of Health, Bethesda, Md.) (88). Twenty four hours after transfection, the cells were treated with M4N, Rottlerin, or Ly294002. Then 24 hrs after this treatment with these reagents, the cells were fixed with 10% formaldehyde in phosphate buffered saline without calcium and magnesium (PBS (−)). The cells were then incubated with rabbit anti-GFP antibody (MBL International, Woburn, Mass.) followed by treatment with anti-rabbit IgG antibody conjugated with fluorescein (Promega, Madison, Wis.). TUNEL staining was conducted by using TUNEL apoptosis detection kit (Upstate, Temecula, Calif.) except for using Streptavidin-Alexa Fluor 568 (Molecular Probes, Eugene, Oreg.) instead of Avidine-Rhodamine contained in the kit. Cell death was evaluated by dividing the number of TUNEL-positive cells among the cells positive with anti-GFP staining by the number of these GFP-positive cells.

Series [5] deals with 67NR cells. Nature of the series: TUNEL apoptosis assay in 67NR cells. Format: cell-based, mouse. The conditions noted are these: 48 hr after treatment, M4N 80 μM. As for the experimental part: as §1, §2
In series [6] the test system is HIF. Nature of the series: Western blotting of HIF in 4T1 cells. Format: cell-based, mouse. Conditions: 4T1, M4N 80 μM. The procedure: (§3) Western blotting: After cells had been grown in […] flasks and treated with reagents, the cells were washed with PBS (−) three times and suspended in RIP A buffer (150 mM NaCl, 50 mM Tris-HCl (pH 8,0), 0.1% SDS, 1% NP40, and 0.5% deoxycholate) supplemented with protease inhibitor cocktail (Calbiochem, San Diego, Calif.). The sample volumes were adjusted by the total protein amount. Protein assay was performed by Bio-Rad Protein Assay (Bio-Rad Laboratories, Inc. Hercules, Calif.). The samples were resolved by the standard SDS-polyacrylamide gel electrophoresis and transferred to nitrocellulose membrane (Amersham Biosciences, Bjorkgatan, Sweden). The membranes were blocked with skim milk, and incubated with primary antibodies at 4° C. overnight and then with secondary antibody conjugated with horse radish peroxidase at room temperature for 2 hrs. The signals were detected by western blot chemiluminescence reagent plus (New England Nuclear Life Science Products, Boston, Mass.).

For series [7], the system named is tumors. Conditions: intravenous infusion, cited from earlier work.
Series [8] concerns caspase-9. Nature of the series: Western blotting of caspase-9 cleavage in 67NR cells. The format is cell-based, mouse. Conditions: 5 hrs, Rottlerin 5 μM, M4N 80 μM. The procedure:
as §3

For series [9] the following is noted: cited from earlier work.
Series [10] concerns 4T1 cells. Nature of the series: 4T1 tumor-bearing Balb/c mice (life-span, tumor size). Conditions: 5×10^4 cells, M4N 1 mg/shot, Rottlerin 100 μg/shot, three days a week from day 7. The format is in vivo, mouse. As for the experimental part:
Animals: Female Balb/e mice were obtained from Charles River Laboratories (Wilmington, Mass.). M4N and Rottlerin were dissolved into a solvent, CPE (25/30) solvent system supplied by Erimos Pharmaceutical, L.L.C. (Raleigh, N.C.) and injected into mice either intravenously or intraperitoneally, T-cell deficient male nude mice (nu/nu) were obtained from Charles River Laboratories (Wilmington, Mass.). M4N and Ly294002 were dissolved into a solvent, CPE (25/30) solvent system supplied by Erimos Pharmaceutical, L.L.C. (Raleigh, N.C.) and injected into mice intravenously.
Tumor inoculation: Either 4T1 or 67NR cells were grown as described above. Cells growing subconfluently were collected and resuspended into the tissue culture medium minus fetal bovine serum and antibiotics, After counting the number of the cells, the cell concentration was adjusted. Twenty μl of the solution containing a selected number of cancer cells (either 5×10^3 or 5×10^4 cells) was injected into each fat pad of a pair of mammary glands located close to lower limbs. Tumor size was measured by weighing tumors extracted from mouse cadavers.

A value given as a limit tells only on which side of the number the result lay.

In the case of `COc1ccc(C[C@@H](C)[C@@H](C)Cc2ccc(OC)c(OC)c2)cc1OC` [M4N, tetra-O-methyl nordihydroguaiaretic acid], in series [1], the “amount of phosphorylated PKCδ at Thr505” value is “induced phosphorylation”. In addition, in series [2], the “M4N level accumulated in blood and tumors” value was “above 1 mM”. Besides, the “cell growth (MTT)” value in [3] is on record as “able to reduce cell growth almost as much as a combination treatment”. Besides, the TUNEL-positive cell death result is on record as “did not detect many TUNEL-positive cells” in series [4] and “more cell death in 67NR cells than 4T1 cells” in series [5]. In addition, in series [6], the “effect on Desferoxamine-mediated HIF induction” value was “slightly suppressed”. Also, the “disease stabilization in patients” value in [7] (Phase I/II) is given as “long term stabilization of disease in some patients”. Also, the “tumor shrinkage in patients” value in series [7] was “tumor shrinkage has rarely been seen”. Also, in series [8], the “caspase-9 activation (cleavage)” value is listed as “slightly further augmented”. The “toxic effects after oral administration” value in series [9] (mouse, in vivo, po) is given as “essentially no toxic effects”. For the same compound, the “M4N concentration retained in mouse organs” value in series [9] (oral administration, short term and long term feeding) is ≤ 906 μg/g of tissue. Also, the “life-span of 4T1-bearing mice” value in [10] is given as “didn't extend the life-span”.
